Experimental data: patent publication US8633183B2 (priority 2010, dated 2014)

Each compound was assayed against PI3Kalpha (Homo sapiens (Human), UniProt P42336). Settings: read-out: IC50 PI3K.
Sequence of PI3Kalpha (P42336 whole entry, looked up): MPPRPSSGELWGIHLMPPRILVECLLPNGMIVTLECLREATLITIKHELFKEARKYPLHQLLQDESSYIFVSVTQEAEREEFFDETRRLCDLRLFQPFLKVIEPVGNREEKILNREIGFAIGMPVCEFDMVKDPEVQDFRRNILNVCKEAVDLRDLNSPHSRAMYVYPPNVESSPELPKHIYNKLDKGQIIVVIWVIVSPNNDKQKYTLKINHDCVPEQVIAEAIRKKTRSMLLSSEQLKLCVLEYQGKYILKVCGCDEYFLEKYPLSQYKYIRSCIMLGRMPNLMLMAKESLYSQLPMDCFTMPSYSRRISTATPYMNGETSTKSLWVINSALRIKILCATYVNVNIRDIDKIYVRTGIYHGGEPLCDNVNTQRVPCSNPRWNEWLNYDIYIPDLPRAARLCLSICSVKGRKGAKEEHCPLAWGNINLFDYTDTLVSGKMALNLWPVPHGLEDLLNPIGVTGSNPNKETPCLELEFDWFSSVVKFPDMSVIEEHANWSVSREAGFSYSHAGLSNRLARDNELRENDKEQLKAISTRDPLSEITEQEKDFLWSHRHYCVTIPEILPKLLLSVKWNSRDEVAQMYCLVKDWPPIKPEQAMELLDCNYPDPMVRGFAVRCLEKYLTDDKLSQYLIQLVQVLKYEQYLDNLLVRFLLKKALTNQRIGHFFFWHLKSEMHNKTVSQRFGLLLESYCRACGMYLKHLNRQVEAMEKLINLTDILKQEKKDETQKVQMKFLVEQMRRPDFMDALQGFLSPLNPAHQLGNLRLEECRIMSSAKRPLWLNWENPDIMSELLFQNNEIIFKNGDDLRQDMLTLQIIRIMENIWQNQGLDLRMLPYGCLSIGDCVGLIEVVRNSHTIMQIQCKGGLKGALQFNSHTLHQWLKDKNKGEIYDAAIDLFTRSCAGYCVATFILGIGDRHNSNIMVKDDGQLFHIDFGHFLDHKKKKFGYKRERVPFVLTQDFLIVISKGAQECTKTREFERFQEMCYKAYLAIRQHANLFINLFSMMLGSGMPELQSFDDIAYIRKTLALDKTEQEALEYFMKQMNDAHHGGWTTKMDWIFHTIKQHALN
`CCc1ncnc(-c2ccc(C(=O)N3CCC(C4CCN(C)CC4)CC3)c(Cl)c2)c1C#Cc1ccc(N)nc1` [Example D-139] gave an IC50 of 0.374 µM.
Compound `CCc1ncnc(-c2ccc(C(=O)NC3CCCN(C)C3)c(Cl)c2)c1C#Cc1ccc(N)nc1` [Example D-140] has an IC50 of 0.51 µM.
`CCc1ncnc(-c2ccc(C(=O)N3CCC(OC)CC3)c(Cl)c2)c1C#Cc1ccc(N)nc1` [Example D-142] was tested, and the IC50 was 0.094 µM.
`CCc1ncnc(-c2ccc(C(=O)N3CCC(C)(O)CC3)c(Cl)c2)c1C#Cc1ccc(N)nc1` [Example D-143] was tested, and the IC50 was 0.077 µM.
In the case of `CCc1ncnc(-c2ccc(C(=O)N3CC[C@H](O)C3)c(Cl)c2)c1C#Cc1ccc(N)nc1` [Example D-145], the IC50 is reported as 0.058 µM.
`CCc1ncnc(-c2ccc(C(=O)N3CC[C@@H](O)C3)c(Cl)c2)c1C#Cc1ccc(N)nc1` [Example D-146] was tested, and the IC50 was 0.066 µM.
For `CCc1ncnc(-c2ccc(C(=O)N3CCCC(O)C3)c(Cl)c2)c1C#Cc1ccc(N)nc1` [Example D-147], the IC50 was 0.065 µM.
For `CCc1ncnc(-c2ccc(C(=O)N3CCNCC3)c(Cl)c2)c1C#Cc1ccc(N)nc1` [Example D-152], the IC50 was 0.164 µM.
With `CCc1ncnc(-c2ccc(C(=O)N(C)O)c(Cl)c2)c1C#Cc1ccc(N)nc1` [Example D-153] the IC50 was 0.067 µM.
Work on `CCc1ncnc(-c2ccc(C(=O)N3CCCN(C)CC3)c(Cl)c2)c1C#Cc1ccc(N)nc1` [Example D-154] yielded an IC50 of 0.405 µM.
Work on `CCc1ncnc(-c2ccc(C(=O)N3CCN(c4ccncc4)CC3)c(Cl)c2)c1C#Cc1ccc(N)nc1` [Example D-155] yielded an IC50 of 0.209 µM.
`CCc1ncnc(-c2ccc(C(=O)N3CCCOCC3)c(Cl)c2)c1C#Cc1ccc(N)nc1` [Example D-157] showed an IC50 of 0.065 µM.
`CCc1ncnc(-c2ccc(C(=O)NCC3(C)COC3)c(Cl)c2)c1C#Cc1ccc(N)nc1` [Example D-159] was tested, and the IC50 was 0.066 µM.
`CCc1ncnc(-c2ccc(C(=O)N3CCN(Cc4ccccc4)CC3)c(Cl)c2)c1C#Cc1ccc(N)nc1` [Example D-160] showed an IC50 of 0.658 µM.
`Cc1ncnc(-c2ccc(C(=O)N3CCN(c4ccccc4)CC3)cc2)c1C#Cc1ccc(N)nc1` [Example D-188] was tested, and the IC50 was 0.067 µM.
`COCCN1CCN(C(=O)c2ccc(-c3ncnc(C)c3C#Cc3ccc(N)nc3)cc2)CC1` [Example D-189] gave an IC50 of 0.118 µM.
`CCCCN1CCN(C(=O)c2ccc(-c3ncnc(C)c3C#Cc3ccc(N)nc3)cc2)CC1` [Example D-190] showed an IC50 of 0.153 µM.
`Cc1ncnc(-c2ccc(C(=O)N3CCN4CCCCC4C3)cc2)c1C#Cc1ccc(N)nc1` [Example D-191] showed an IC50 of 0.081 µM.
`Cc1ncnc(-c2ccc(C(=O)N3CCN(C4CCS(=O)(=O)C4)CC3)cc2)c1C#Cc1ccc(N)nc1` [Example D-192] was tested, and the IC50 was 0.134 µM.
Work on `Cc1ncnc(-c2ccc(C(=O)N3CCN(C4CCOCC4)CC3)cc2)c1C#Cc1ccc(N)nc1` [Example D-193] yielded an IC50 of 0.065 µM.
For `Cc1ncnc(-c2ccc(C(=O)N3CCN(CCO)CC3)cc2)c1C#Cc1ccc(N)nc1` [Example D-194], the IC50 was 0.106 µM.
In the case of `CCc1ncnc(-c2ccc(C(=O)NCC(O)CN(C)C)c(F)c2)c1C#Cc1ccc(N)nc1` [Example D-196], the IC50 is reported as 0.292 µM.
`CCc1ncnc(-c2ccc(C(=O)NC3CCCN(C)C3)c(F)c2)c1C#Cc1ccc(N)nc1` [Example D-197] was tested, and the IC50 was 0.28 µM.
With `CCc1ncnc(-c2ccc(C(=O)NC3CC(N4CCN(C)CC4)C3)c(F)c2)c1C#Cc1ccc(N)nc1` [Example D-198] the IC50 was 0.203 µM.
`CCc1ncnc(-c2ccc(C(=O)NC3CCN(C)C3)c(F)c2)c1C#Cc1ccc(N)nc1` [Example D-199] was tested, and the IC50 was 0.347 µM.
In the case of `CCc1ncnc(-c2ccc(C(=O)NC[C@H]3CCCN3CC)c(F)c2)c1C#Cc1ccc(N)nc1` [Example D-200], the IC50 is reported as 0.566 µM.
`CCc1ncnc(-c2ccc(C(=O)NC3CCN(CCOC)CC3)c(F)c2)c1C#Cc1ccc(N)nc1` [Example D-201] gave an IC50 of 0.134 µM.
`CCc1ncnc(-c2ccc(C(=O)NC3CC(C)(C)N(C)C(C)(C)C3)c(F)c2)c1C#Cc1ccc(N)nc1` [Example D-202] showed an IC50 of 0.413 µM.
For `CCc1ncnc(-c2ccc(C(=O)N3CC[C@H](O)C3)c(F)c2)c1C#Cc1ccc(N)nc1` [Example D-203], the IC50 was 0.057 µM.
Compound `CCc1ncnc(-c2ccc(C(=O)N3CC[C@@H](O)C3)c(F)c2)c1C#Cc1ccc(N)nc1` [Example D-204] has an IC50 of 0.069 µM.
For `CCc1ncnc(-c2ccc(C(=O)NC3CCCN(C4CCN(C)CC4)C3)c(F)c2)c1C#Cc1ccc(N)nc1` [Example D-205], the IC50 was 0.335 µM.
`CCc1ncnc(-c2ccc(C(=O)NC3CC(N4CCCCC4)C3)c(F)c2)c1C#Cc1ccc(N)nc1` [Example D-207] was tested, and the IC50 was 0.436 µM.
In the case of `CCc1ncnc(-c2ccc(C(=O)NC3CC(N4CCC(N5CCCC5)CC4)C3)c(F)c2)c1C#Cc1ccc(N)nc1` [Example D-208], the IC50 is reported as 0.308 µM.
For `CCc1ncnc(-c2ccc(C(=O)NC3CCN(C4CCN(C)CC4)C3)c(F)c2)c1C#Cc1ccc(N)nc1` [Example D-210], the IC50 was 0.37 µM.
`CCc1ncnc(-c2ccc(C(=O)NCCN3CCCC3=O)c(F)c2)c1C#Cc1ccc(N)nc1` [Example D-211] was tested, and the IC50 was 0.046 µM.
Compound `CCc1ncnc(-c2ccc(C(=O)NC3CCS(=O)(=O)C3)c(F)c2)c1C#Cc1ccc(N)nc1` [Example D-212] has an IC50 of 0.079 µM.
`CCc1ncnc(-c2ccc(C(=O)NC3CC(C)(C)NC(C)(C)C3)c(F)c2)c1C#Cc1ccc(N)nc1` [Example D-213] showed an IC50 of 0.272 µM.
`CCc1ncnc(-c2ccc(C(=O)NCC3(C)COC3)c(F)c2)c1C#Cc1ccc(N)nc1` [Example D-214] was tested, and the IC50 was 0.072 µM.
Compound `CCc1ncnc(-c2ccc(C(=O)N3CCC(N(C)C)C3)c(F)c2)c1C#Cc1ccc(N)nc1` [Example D-215] has an IC50 of 0.227 µM.
For `CCc1ncnc(-c2ccc(C(=O)N(C)C3CCS(=O)(=O)C3)c(F)c2)c1C#Cc1ccc(N)nc1` [Example D-216], the IC50 was 0.059 µM.
In the case of `CCc1ncnc(-c2ccc(C(=O)NCCN3CCOCC3)c(F)c2)c1C#Cc1ccc(N)nc1` [Example D-217], the IC50 is reported as 0.044 µM.
With `CCc1ncnc(-c2ccc(C(=O)N3CCCO3)c(F)c2)c1C#Cc1ccc(N)nc1` [Example D-218] the IC50 was 0.08 µM.
Compound `CCc1ncnc(-c2ccc(C(=O)N3CCCCO3)c(F)c2)c1C#Cc1ccc(N)nc1` [Example D-219] has an IC50 of 0.105 µM.
Work on `CCc1ncnc(-c2ccc(C(=O)N3CCCO3)cc2)c1C#Cc1ccc(N)nc1` [Example D-222] yielded an IC50 of 0.042 µM.
Compound `CCc1ncnc(-c2ccc(C(=O)N3CCCCO3)cc2)c1C#Cc1ccc(N)nc1` [Example D-223] has an IC50 of 0.077 µM.
For `CCc1ncnc(-c2ccc(C(=O)N3CC(O)CO3)cc2)c1C#Cc1ccc(N)nc1` [Example D-224], the IC50 was 0.039 µM.
`CCc1ncnc(-c2ccc(C(=O)N(C)OC)cc2)c1C#Cc1ccc(N)nc1` [Example D-225] showed an IC50 of 0.066 µM.
With `Cc1ncnc(-c2ccc(C(=O)N3CCCO3)c(F)c2)c1C#Cc1ccc(N)nc1` [Example D-226] the IC50 was 0.048 µM.
With `Cc1ncnc(-c2ccc(C(=O)N3CCCCO3)c(F)c2)c1C#Cc1ccc(N)nc1` [Example D-227] the IC50 was 0.047 µM.
Work on `Cc1ncnc(-c2ccc(C(=O)N3CC(O)CO3)c(F)c2)c1C#Cc1ccc(N)nc1` [Example D-228] yielded an IC50 of 0.052 µM.
`CON(C)C(=O)c1ccc(-c2ncnc(C)c2C#Cc2ccc(N)nc2)cc1F` [Example D-229] gave an IC50 of 0.065 µM.
`Cc1ncnc(-c2ccc(C(=O)N3CCCO3)c(Cl)c2)c1C#Cc1ccc(N)nc1` [Example D-230] showed an IC50 of 0.037 µM.
Compound `Cc1ncnc(-c2ccc(C(=O)N3CCCCO3)c(Cl)c2)c1C#Cc1ccc(N)nc1` [Example D-231] has an IC50 of 0.046 µM.
In the case of `Cc1ncnc(-c2ccc(C(=O)N3CC(O)CO3)c(Cl)c2)c1C#Cc1ccc(N)nc1` [Example D-232], the IC50 is reported as 0.038 µM.
Compound `CCc1ncnc(-c2ccc(C(=O)N3CCC(N4CCOCC4)C3)c(F)c2)c1C#Cc1ccc(N)nc1` [Example D-234] has an IC50 of 0.156 µM.
In the case of `CCc1ncnc(-c2ccc(C(=O)N3CCC(N4CCCC4)C3)c(F)c2)c1C#Cc1ccc(N)nc1` [Example D-235], the IC50 is reported as 0.226 µM.
Work on `CCc1ncnc(-c2ccc(C(=O)N3CC[C@@H](N(C)C)C3)c(F)c2)c1C#Cc1ccc(N)nc1` [Example D-236] yielded an IC50 of 0.269 µM.
For `CCc1ncnc(-c2ccc(C(=O)N3CC[C@H](N(C)C)C3)c(F)c2)c1C#Cc1ccc(N)nc1` [Example D-237], the IC50 was 0.161 µM.
For `CCc1ncnc(-c2ccc(C(=O)N3CCC(N(CC)CC)C3)c(F)c2)c1C#Cc1ccc(N)nc1` [Example D-238], the IC50 was 0.382 µM.
Work on `CCc1ncnc(-c2ccc(C(=O)N3CCOCC3)c(F)c2)c1C#Cc1ccc(N)nc1` [Example D-239] yielded an IC50 of 0.055 µM.
`CCc1ncnc(-c2ccc(C(=O)N3CCN(C)CC3)nc2)c1C#Cc1ccc(N)nc1` [Example D-240] was tested, and the IC50 was 0.214 µM.
`CCc1ncnc(-c2cc(F)c(C(=O)N3CCN(C)CC3)c(F)c2)c1C#Cc1ccc(N)nc1` [Example E-1] showed an IC50 of 0.132 µM.
For `CCc1ncnc(-c2cc(F)c(C(=O)N3CCN(C(C)C)CC3)c(F)c2)c1C#Cc1ccc(N)nc1` [Example E-2], the IC50 was 0.237 µM.
`CCc1ncnc(-c2cc(F)c(C(=O)N3CCN(CC)CC3)c(F)c2)c1C#Cc1ccc(N)nc1` [Example E-3] gave an IC50 of 0.276 µM.
For `CCCN1CCN(C(=O)c2c(F)cc(-c3ncnc(CC)c3C#Cc3ccc(N)nc3)cc2F)CC1` [Example E-4], the IC50 was 0.133 µM.
Work on `CCc1ncnc(-c2cc(F)c(C(=O)N3CCN(CCOC)CC3)c(F)c2)c1C#Cc1ccc(N)nc1` [Example E-5] yielded an IC50 of 0.0788 µM.
For `CCc1ncnc(-c2cc(F)c(C(=O)N3CCN(C4CCOCC4)CC3)c(F)c2)c1C#Cc1ccc(N)nc1` [Example E-6], the IC50 was 0.124 µM.
With `CCc1ncnc(-c2cc(F)c(C(=O)N3CCN(CC4CC4)CC3)c(F)c2)c1C#Cc1ccc(N)nc1` [Example E-7] the IC50 was 0.189 µM.
Compound `CCc1ncnc(-c2cc(F)c(C(=O)N3CCN(C(C)(C)C)CC3)c(F)c2)c1C#Cc1ccc(N)nc1` [Example E-8] has an IC50 of 1.32 µM.
With `CCc1ncnc(-c2cc(F)c(C(=O)N3CCC(N4CCOCC4)CC3)c(F)c2)c1C#Cc1ccc(N)nc1` [Example E-9] the IC50 was 0.199 µM.
For `CCc1ncnc(-c2cc(F)c(C(=O)N(C)C)c(F)c2)c1C#Cc1ccc(N)nc1` [Example E-10], the IC50 was 0.0491 µM.
In the case of `CCc1ncnc(-c2cc(F)c(C(=O)N3CCCC3)c(F)c2)c1C#Cc1ccc(N)nc1` [Example E-11], the IC50 is reported as 0.125 µM.
For `CCc1ncnc(-c2cc(F)c(C(=O)NC)c(F)c2)c1C#Cc1ccc(N)nc1` [Example E-12], the IC50 was 0.065 µM.
`CCc1ncnc(-c2cc(F)c(C(=O)NCCN3CCOCC3)c(F)c2)c1C#Cc1ccc(N)nc1` [Example E-13] was tested, and the IC50 was 0.154 µM.
In the case of `CCc1ncnc(-c2cc(F)c(C(=O)N3CCNCC3)c(F)c2)c1C#Cc1ccc(N)nc1` [Example E-14], the IC50 is reported as 0.353 µM.
